The record followed here is US20200385371A1 (Propellon Therapeutics Inc., priority 2017, published 2020).

A word on the IC50: it is the concentration at which inhibition is half-maximal. One may read the EC50 as the midpoint of the concentration-response curve. One may read the Kd as the concentration at which binding is half-saturated.

Experiment [1] addresses T1, WDR5 (Homo sapiens, UniProt P61964). In words: Fluorescence Polarization (FP) binding assay. The essentials: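 Buffer was pH 6.5 sodium phosphate (80 mM) with 20 mM KCl and 0.008% Triton X-100; 9-Ala-FAM probe at 20 nM used 0.05 μM WDR5 and 480/540 nm polarization, H3 (1-15) probe at 30 nM used 0.3 μM WDR5 and 485/528 nm. Quadruplicate data were hyperbola-fitted to give Kdisp.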
A general note: Polarisation of emitted light reports the rotation of a fluorescent probe.

The subject of a further experiment is MV4-11 cells. In words: Cell proliferation assay (ATPlite). The experiment is classed as cell-based. As to conditions: Homo sapiens, 120 h; MV4-11 cells, five days; read-out: GI MV411 EC50. The gist of the method:
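ATPlite luminescence after five days' culture (37° C, 5% CO2) gives viability. Compounds dosed in 10 concentrations up to 10 μM against DMSO; 1,000 cells/well seeded in Alpha-MEM/10% FBS.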

In experiment [2] the target is T1, WDR5. In words: Surface Plasmon Resonance (SPR) assay. As to conditions: read-out: SPR Kd. More on the design: Full length WDR5 with an N-terminal His tag and C-terminal AviTag; His tag (N); made in house; host or cells: E. coli. It is filed as binding. The essentials: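 Full-length biotinylated WDR5 (N-His, C-AviTag, E. coli) captured (~3000 RU) on streptavidin SA chip; Biacore T200. HBS-EP pH 7.4 plus 5% DMSO running buffer, 40 μl/min.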

In the case of `C[C@H]1CN(c2cc(F)c(C3=CCN(c4ccnc(C#N)n4)CC3)c(F)c2NC(=O)c2c[nH]c(=O)cc2C(F)(F)F)CCN1C` [Example 112, (S)—N-(3-(1-(2-cyanopyrimidin-4-yl)-1,2,3,6-tetrahydropyridin-4-yl)-6-(3,4-dimethylpiperazin-1-yl)-2,4-difluorophenyl)-6-oxo-4-(trifluoromethyl)-1,6-dihydropyridine-3-carboxamide], the IC50 on WDR5 [1] is 15 nM. Moreover, the EC50 in the experiment with MV4-11 cells stood at 35 nM. Further, the Kd at WDR5 [2] came to 2.4 nM.
In the same order, the values of `C[C@H]1CN(c2cc(F)c(C3=CCCN(c4ccnc(C#N)n4)C3)c(F)c2NC(=O)c2c[nH]c(=O)cc2C(F)F)CCN1C` [Example 113, (S)—N-(3-(1-(2-cyanopyrimidin-4-yl)-1,2,5,6-tetrahydropyridin-3-yl)-6-(3,4-dimethylpiperazin-1-yl)-2,4-difluorophenyl)-4-(difluoromethyl)-6-oxo-1,6-dihydropyridine-3-carboxamide] are 14.8 nM, 85.9 nM and 1.99 nM.
As to `C[C@H]1CN(c2cc(F)c(C3=CCCN(c4ccnc(C#N)n4)C3)c(F)c2NC(=O)c2c[nH]c(=O)cc2C(F)(F)F)CCN1C` [Example 114, (S)—N-(3-(1-(2-cyanopyrimidin-4-yl)-1,2,5,6-tetrahydropyridin-3-yl)-6-(3,4-dimethylpiperazin-1-yl)-2,4-difluorophenyl)-6-oxo-4-(trifluoromethyl)-1,6-dihydropyridine-3-carboxamide], the IC50 at WDR5 [1] came out at 15.9 nM. In addition, the EC50 in the experiment on MV4-11 cells was 36.6 nM. Also, the Kd at WDR5 [2] came to 2.42 nM.
As to `C[C@@H]1CN(c2ncc(-c3c(F)cc(N4CCN(C)[C@@H](C)C4)c(NC(=O)c4c[nH]c(=O)cc4C(F)F)c3F)cn2)C[C@@H](C)O1` [Example 115, 4-(Difluoromethyl)-N-(3-(2-((2R,6R)-2,6-dimethylmorpholino)pyrimidin-5-yl)-6-((S)-3,4-dimethylpiperazin-1-yl)-2,4-difluorophenyl)-6-oxo-1,6-dihydropyridine-3-carboxamide], the IC50 on WDR5 [1] is 13.8 nM. In addition, the EC50 with MV4-11 cells was found to be 9.38 nM. Moreover, the Kd at WDR5 [2] turned out to be 0.7 nM.
For the compound `C[C@@H]1CN(c2ncc(-c3c(F)cc(N4C[C@@H](C)N(C)[C@@H](C)C4)c(NC(=O)c4c[nH]c(=O)cc4C(F)F)c3F)cn2)C[C@@H](C)O1` [Example 116, 4-(Difluoromethyl)-N-(3-(2-((2R,6R)-2,6-dimethylmorpholino)pyrimidin-5-yl)-2,4-difluoro-6-((3S,5R)-3,4,5-trimethylpiperazin-1-yl)phenyl)-6-oxo-1,6-dihydropyridine-3-carboxamide], the IC50 at WDR5 [1] stood at 15.2 nM. In the experiment on MV4-11 cells, the half-maximal effective concentration (EC50) is 36.5 nM. The Kd on WDR5 [2] came to 1.12 nM.
In the same order, the values of `CC(C)[C@@H]1CN(c2ncc(-c3c(F)cc(N4CCN(C)[C@@H](C)C4)c(NC(=O)c4c[nH]c(=O)cc4C(F)F)c3F)cn2)CCO1` [Example 117, 4-(Difluoromethyl)-N-(6-((S)-3,4-dimethylpiperazin-1-yl)-2,4-difluoro-3-(2-((R)-2-isopropylmorpholino)pyrimidin-5-yl)phenyl)-6-oxo-1,6-dihydropyridine-3-carboxamide] are 13.6 nM, 28.2 nM and 0.84 nM.
On the same counts, the results for `CC(C)[C@@H]1CN(c2ncc(-c3c(F)cc(N4C[C@@H](C)N(C)[C@@H](C)C4)c(NC(=O)c4c[nH]c(=O)cc4C(F)F)c3F)cn2)CCO1` [Example 118, N-(2,4-difluoro-3-(2-((R)-2-isopropylmorpholino)pyrimidin-5-yl)-6-((3S,5R)-3,4,5-trimethylpiperazin-1-yl)phenyl)-4-(difluoromethyl)-6-oxo-1,6-dihydropyridine-3-carboxamide] are 12.2 nM, 12.2 nM and 0.95 nM.
In the same order, the values of `C[C@H]1CN(c2ncc(-c3c(F)cc(N4CCN(C)[C@@H](C)C4)c(NC(=O)c4c[nH]c(=O)cc4C(F)F)c3F)cn2)C[C@H](C)O1` [Example 119, 4-(Difluoromethyl)-N-(3-(2-((2S,6S)-2,6-dimethylmorpholino)pyrimidin-5-yl)-6-((S)-3,4-dimethylpiperazin-1-yl)-2,4-difluorophenyl)-6-oxo-1,6-dihydropyridine-3-carboxamide] are 11.7 nM, 20.4 nM and 0.9 nM.
Turning to `C[C@@H]1CN(c2cc(F)c(-c3cnc(N4C[C@H](C)O[C@@H](C)C4)nc3)c(F)c2NC(=O)c2c[nH]c(=O)cc2C(F)F)C[C@H](C)N1C` [Example 120, 4-(Difluoromethyl)-N-(3-(2-((2S,6S)-2,6-dimethylmorpholino)pyrimidin-5-yl)-2,4-difluoro-6-((3S,5R)-3,4,5-trimethylpiperazin-1-yl)phenyl)-6-oxo-1,6-dihydropyridine-3-carboxamide], at WDR5 [1], the IC50 turned out to be 12 nM. Further, in the experiment with MV4-11 cells, the EC50 was found to be 2.07 nM. The Kd on WDR5 [2] turned out to be 1.35 nM.
For the compound `CC(C)[C@H]1CN(c2ncc(-c3c(F)cc(N4CCN(C)[C@@H](C)C4)c(NC(=O)c4c[nH]c(=O)cc4C(F)F)c3F)cn2)CCO1` [Example 121, 4-(Difluoromethyl)-N-(6-((S)-3,4-dimethylpiperazin-1-yl)-2,4-difluoro-3-(2-((S)-2-isopropylmorpholino)pyrimidin-5-yl)phenyl)-6-oxo-1,6-dihydropyridine-3-carboxamide], at WDR5 [1], the IC50 came to 11.9 nM. The EC50 in the experiment with MV4-11 cells was 15.7 nM. On WDR5 [2], the Kd stood at 1.07 nM.
On the same counts, the results for `CC(C)[C@H]1CN(c2ncc(-c3c(F)cc(N4C[C@@H](C)N(C)[C@@H](C)C4)c(NC(=O)c4c[nH]c(=O)cc4C(F)F)c3F)cn2)CCO1` [Example 122, N-(2,4-Difluoro-3-(2-((S)-2-isopropylmorpholino)pyrimidin-5-yl)-6-((3S,5R)-3,4,5-trimethylpiperazin-1-yl)phenyl)-4-(difluoromethyl)-6-oxo-1,6-dihydropyridine-3-carboxamide] are 12.5 nM, 22.1 nM and 1.98 nM.
`CC(C)[C@@H]1CN(c2nccc(-c3c(F)cc(N4CCN(C)[C@@H](C)C4)c(NC(=O)c4c[nH]c(=O)cc4C(F)(F)F)c3F)n2)CCO1` [Example 123, N-(6-((S)-3,4-dimethylpiperazin-1-yl)-2,4-difluoro-3-(2-((R)-2-isopropylmorpholino)pyrimidin-4-yl)phenyl)-6-oxo-4-(trifluoromethyl)-1,6-dihydropyridine-3-carboxamide]: the IC50 on WDR5 [1] was 14.9 nM. Besides, the EC50 in the experiment with MV4-11 cells was 61.8 nM. Moreover, the Kd on WDR5 [2] stood at 1.68 nM.
In the same order, the values of `CC(C)[C@@H]1CN(c2nccc(-c3c(F)cc(N4CCN(C)[C@@H](C)C4)c(NC(=O)c4c[nH]c(=O)cc4C(F)F)c3F)n2)CCO1` [Example 124, 4-(Difluoromethyl)-N-(6-((S)-3,4-dimethylpiperazin-1-yl)-2,4-difluoro-3-(2-((R)-2-isopropylmorpholino)pyrimidin-4-yl)phenyl)-6-oxo-1,6-dihydropyridine-3-carboxamide] are 12.4 nM, 55.9 nM and 0.8 nM.
In the same order, the values of `C[C@@H]1CN(c2cc(F)c(-c3cnc(N4CCO[C@@H](C)C4)nc3)c(F)c2NC(=O)c2c[nH]c(=O)cc2C(F)F)C[C@H](C)N1C` [Example 125, N-(2,4-difluoro-3-(2-((S)-2-methylmorpholino)pyrimidin-5-yl)-6-((3S,5R)-3,4,5-trimethylpiperazin-1-yl)phenyl)-4-(difluoromethyl)-6-oxo-1,6-dihydropyridine-3-carboxamide] are 11.9 nM, 19.4 nM and 0.69 nM.
In the same order, the values of `C[C@H]1CN(c2ncc(-c3c(F)cc(N4CCN(C)[C@@H](C)C4)c(NC(=O)c4c[nH]c(=O)cc4C(F)F)c3F)cn2)CCO1` [Example 126, 4-(Difluoromethyl)-N-(6-((S)-3,4-dimethylpiperazin-1-yl)-2,4-difluoro-3-(2-((S)-2-methylmorpholino)pyrimidin-5-yl)phenyl)-6-oxo-1,6-dihydropyridine-3-carboxamide] are 11.8 nM, 11.8 nM and 0.56 nM.
In the case of `C[C@@H]1CN(c2ncc(-c3c(F)cc(N4CCN(C)[C@@H](C)C4)c(NC(=O)c4c[nH]c(=O)cc4C(F)(F)F)c3F)cn2)CCO1` [Example 127, N-(6-((S)-3,4-dimethylpiperazin-1-yl)-2,4-difluoro-3-(2-((R)-2-methylmorpholino)pyrimidin-5-yl)phenyl)-6-oxo-4-(trifluoromethyl)-1,6-dihydropyridine-3-carboxamide], on WDR5 [1], the IC50 came out at 11.7 nM. Besides, in the experiment on MV4-11 cells, the concentration for a half-maximal effect (EC50) is 10.2 nM. The Kd on WDR5 [2] is 0.69 nM.
In the same order, the values of `C[C@@H]1CN(c2ncc(-c3c(F)cc(N4C[C@@H](C)N(C)[C@@H](C)C4)c(NC(=O)c4c[nH]c(=O)cc4C(F)(F)F)c3F)cn2)CCO1` [Example 128, N-(2,4-difluoro-3-(2-((R)-2-methylmorpholino)pyrimidin-5-yl)-6-((3S,5R)-3,4,5-trimethylpiperazin-1-yl)phenyl)-6-oxo-4-(trifluoromethyl)-1,6-dihydropyridine-3-carboxamide] are 12.8 nM, 5.85 nM and 0.69 nM.
